Measurements from patent US4931292A, “Method of preparing iron(III) phosphate compounds for iron fortification of food products” (EKA Nobel AB, priority 1986, dated 1990).
“Also recorded” adds a separate entry of the source.

Tests used:
[1] = Examination of bioavailability in humans: absorption of 55Fe-labelled iron compound and 59Fe-labelled native iron from iron-fortified buns; type: in vivo; conditions: for Absorption, Fortification: fortification iron (55Fe)
Description: The examination was carried out by the technique described in the above-mentioned paper by Hallberg et al.
The iron compound to be tested is labelled with radioactive iron, ^55 Fe, in the synthesis of the compound used. This iron is used to fortify flour from which buns are made by standard procedures, for example as follows: ______________________________________ Ingredients Parts by weight ______________________________________ wheat-flour 100 sugar 3.5 salt 1.0 yeast 6.5 water 83 iron source 6.5 ^- 10^-3 ______________________________________
The iron occurring naturally (native iron) in wheat-flour is labelled by adding tracer amounts of ^59 Fe-labelled iron(III)chloride. The buns are thus made of flour which is labelled with two different radioactive isotopes.
The ingredients are mixed, and the dough is allowed to rise for 30 minutes. After the usual kneading, the dough is placed in small aluminium baking tins where the dough pieces are allowed to rise for another 30 minutes. The dough pieces in the baking tins are subsequently baked at a temperature of 250° C. for 10 minutes
These double-labelled buns are served a group of test subjects, for breakfast with coffee, margarine and marmalade two successive mornings after a night's fast. No food or beverage is allowed for three hours after breakfast. Two weeks after the last breakfast, blood tests are made to measure the occurrence of ^55 Fe and ^59 Fe in blood. Furthermore,the totally absorbed amount of ^59 Fe in the body is measured by a so-called total-body counter Via the ratio of ^59 Fe to ^55 Fe in blood samples, also the totally absorbed amount of ^55 Fe can be determined.
Subsequently, a reference solution is administered, consisting of ^59 Fe-labelled iron(II)sulphate and ascorbic acid at two successive breakfasts after a night's fast. No food or beverage is allowed for three hours thereafter. Another two weeks later, a new total-body measurement is made to measure the absorption of the reference dose. The reference solution is administered to make it possible to carry out corrections with regard to differences in the iron absorbing capability of the different test subjects.
The amount of ^59 Fe which is added as ^59 FeCl3 to the wheat-flour, isotope-labels by so-called isotopic exchange all biologically available nonheme iron (=non-blood iron) in the meals analysed, i.e. on the one hand the native iron and, on the other hand, the part of the fortification iron which is dissolved. However, that part of the fortification iron which is not dissolved in the gastrointestinal tract, is not labelled. […]

[2] = humans; literature or background statement; cited from earlier work
[3] = Solubility in artificial gastric environment (0.1M HCl, pH 1, 37° C.); type: physicochemical; conditions: for % Solubility 10 min / % Solubility 30 min / % Solubility 60 min: 0.1M HCl, pH=1, 37° C.; for solubility at pH 1 / in 0.1M HCl / gastric environment (in words): pH 1 (0.1M HCl)
Description: Here, solubility tests for some commercially used iron(III)phosphates have also been included.
The compound examined in Example 1 was also measured as a reference substance (compound A)

[4] = 40 g buns, 0.2 mg native iron, 2.2 mg fortification iron, ten persons

Row | Molecule | % Solubility 10 min [3] [%] | % Solubility 30 min [3] [%] | % Solubility 60 min [3] [%] | absorbability / bioavailability [2] | solubility at pH 1 / in 0.1M HCl / gastric environment (in words) [3] | other results
1 | O=P([O-])([O-])[O-].[Fe+3] [Common iron(III)phosphate, iron(III)phosphate, reference compound] | – | – | – | – | – | Absorption, Fortification ([1]; 60 g buns, 0.5 mg native iron, 3 mg fortification iron, ten persons): 1.1%
2 | O=S(=O)([O-])[O-].[Fe+2] [iron(II)sulphate] | – | – | – | highest absorbability; also recorded: high bioavailability in the human body | – | –
3 | O=P([O-])([O-])[O-].[Fe+3] [iron(III)orthophosphate] | – | – | – | questionable in respect to the bioavailability of iron | – | –
4 | O=P([O-])([O-])OP(=O)([O-])O.[Fe+2].[Na+] [sodium iron pyrophosphate] | – | – | – | questionable in respect to the bioavailability of iron | – | –
5 | Fe3 H8 (NH4)(PO4)6 .multidot.6H2 O [Compound A] | 86 | 100 | 100 | – | – | Relative bioavailability 55Fe/59Fe [1, 4]: 0.63 ± 0.04; Absorption, Fortification [1, 4]: 3.3%; bioavailability (in words) ([1]; humans): far better bioavailability than both the commercial fortifying agent which is to date most frequently used, i.e. iron powder, and the known commercial fortifying agent which, in structural respect, is its closest relation, i.e. common iron(III)phosphate

Further lines, with some results ahead:

Row | % Solubility 10 min [3] [%] | % Solubility 30 min [3] [%] | % Solubility 60 min [3] [%] | Molecule | absorbability / bioavailability [2] | solubility at pH 1 / in 0.1M HCl / gastric environment (in words) [3] | other results
6 | 5 | 39 | 72 | Fe3 H8 K(PO4)6 .multidot.6H2 O [Compound E] | – | low initial solubility but reached, after some time, relatively good values | –
7 | 70 | 93 | 100 | Fe5 H8 Na4 (PO4)9 .multidot.10H2 O [Compound C] | – | approximately the same good solubility properties as the ammonium-containing compound A | –
8 | 61 | 92 | 100 | FeH2 Na(PO4)2 .multidot.0.5H2 O [Compound D] | – | approximately the same good solubility properties as the ammonium-containing compound A | –
9 | 82 | 97 | 100 | FeH5 Na(PO4)3 .multidot.H2 O [Compound B] | – | approximately the same good solubility properties as the ammonium-containing compound A | –
